System: un-induced I-17 cells
Assay: FLIPR assay on un-induced I-17 cells (no mifepristone induction of receptor expression)
Format: cell-based
Conditions: compounds at 10 μM—or three times the maximum stimulation used in the dose-response analysis
Experimental: In order to determine the dependency of hT1R1/hT1R3 for the cell response to different stimuli, selected compounds were subjected to a similar analysis on I-17 cells that had not been induced for receptor expression with mifepristone (designated as un-induced I-17 cells). […] Compounds were presented to un-induced umami cells at […]—or three times the maximum stimulation used in the dose-response analysis.

N[C@@H](CCC(=O)O)C(=O)[O-].[Na+] [monosodium glutamate]
functional response in the FLIPR assay on un-induced umami cells: do not show any functional response
